Data taken from patent US11498923B2 (Merck Sharp & Dohme Corp., priority 2017, dated 2022).

biological target: T1, human A2a receptor (Homo sapiens, UniProt P29274); assay: A2a receptor competition binding assay (Scintillation Proximity); details: membranes from HEK293 cells expressing human A2a receptor; 0.5 nM tritiated ligand; Cheng-Prusoff; read-out: A2a Ki
T1 construct: purchased Perkin-Elmer RBHA2AM400UA; host or cells: HEK293 cells, used as a membrane preparation
Outline: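 HEK293 membranes bearing the human receptor, pretreated with adenosine deaminase, competed against 0.5 nM tritiated pyrazolotriazolopyrimidine antagonist with compound at 3000–0.15 nM final in DPBS plus 10 mM MgCl2. SPA bead readout after 1 h at room temperature; Ki from EC50 via Cheng-Prusoff.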

T1 sequence (P29274 whole entry): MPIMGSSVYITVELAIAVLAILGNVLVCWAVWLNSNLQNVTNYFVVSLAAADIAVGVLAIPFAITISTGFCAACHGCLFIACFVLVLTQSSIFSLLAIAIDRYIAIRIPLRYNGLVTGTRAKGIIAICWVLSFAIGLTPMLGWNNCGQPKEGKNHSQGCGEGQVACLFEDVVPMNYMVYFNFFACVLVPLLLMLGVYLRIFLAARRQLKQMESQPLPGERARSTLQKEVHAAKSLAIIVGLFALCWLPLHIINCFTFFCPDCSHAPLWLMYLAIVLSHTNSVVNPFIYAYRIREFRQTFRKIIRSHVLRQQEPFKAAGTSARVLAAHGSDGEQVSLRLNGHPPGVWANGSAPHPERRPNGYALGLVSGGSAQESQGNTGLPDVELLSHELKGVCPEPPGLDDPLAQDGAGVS

Ki [nM] | SMILES
5.9 | COc1cccc2c1nc(N)n1cc(C(=O)N(C)Cc3cccc4cccnc34)nc21 [Ex-159, 5-amino-7-methoxy-N-methyl-N-(quinolin-8-ylmethyl)imidazo[1,2-c]quinazoline-2-carboxamide]
28 | Nc1nc2c(-c3cnoc3)cccc2c2nc(Cc3ccccc3)cn12 [Ex-156, 2-benzyl-7-(isoxazol-4-yl)imidazo[1,2-c]quinazolin-5-amine]
64 | Nc1nc2c(F)cccc2c2nc(CN3CCc4cc(NC(=O)c5ccccn5)ccc4C3)cn12 [Ex-127, N-(2-((5-amino-7-fluoroimidazo[1,2-c]quinazolin-2-yl)methyl)-1,2,3,4-tetrahydroisoquinolin-6-yl)picolinamide]
5.4 | Nc1nc2c(F)cccc2c2nc(C(=O)NCc3ccccc3N3CCNCC3)cn12 [Ex-261, 5-amino-7-fluoro-N-(2-(piperazin-1-yl)benzyl)imidazo[1,2-c]quinazoline-2-carboxamide]
1400 | Nc1nc2c(F)cccc2c2nc(C(=O)NCC(c3cccnc3)N3CCOCC3)cn12 (centres unmarked) [Ex-166, 5-amino-7-fluoro-N-(2-morpholino-2-(pyridin-3-yl)ethyl)imidazo[1,2-c]quinazoline-2-carboxamide]
7.7 | Nc1nc2c(F)ccc(Br)c2c2nc(Cc3ccccc3)cn12 [Ex-12, 2-benzyl-10-bromo-7-fluoroimidazo[1,2-c]quinazolin-5-amine]
2.3 | COc1cccc2c1nc(N)n1cc(Cc3cccnc3Cl)nc21 [Ex-38, 2-((2-chloropyridin-3-yl)methyl)-7-methoxyimidazo[1,2-c]quinazolin-5-amine]
89.6 | COc1ccc2nc(N)n3cc(Cc4ccccc4)nc3c2c1 [Ex-04, 2-benzyl-9-methoxyimidazo[1,2-c]quinazolin-5-amine]
5.1 | Nc1nc2c(F)cccc2c2nc(Cc3ccc4c(c3)CN(Cc3ccccc3)C4)cn12 [Ex-65, 2-((2-benzylisoindolin-5-yl)methyl)-7-fluoroimidazo[1,2-c]quinazolin-5-amine]
102 | Nc1nc2c(F)cccc2c2nc(Cc3ccnc(N4CCN(c5nc6ccccc6o5)CC4)c3)cn12 [Ex-63, 2-((2-(4-(benzo[d]oxazol-2-yl)piperazin-1-yl)pyridin-4-yl)methyl)-7-fluoroimidazo[1,2-c]quinazolin-5-amine]
21 | Nc1nc2c(F)cccc2c2nc(Cc3cccc(Cc4ccccc4)c3)cn12 [Ex-34, 2-(3-benzylbenzyl)-7-fluoroimidazo[1,2-c]quinazolin-5-amine]
4.5 | COc1cccc2c1nc(N)n1cc(Cc3ccccc3N3CCOCC3)nc21 [Ex-19, 7-methoxy-2-(2-morpholinobenzyl)imidazo[1,2-c]quinazolin-5-amine]
9.9 | Nc1nc2c(F)cccc2c2nc(Cc3cccc4c3CCN(Cc3ccccn3)C4)cn12 [Ex-58, 7-fluoro-2-((2-(pyridin-2-ylmethyl)-1,2,3,4-tetrahydroisoquinolin-5-yl)methyl)imidazo[1,2-c]quinazolin-5-amine]
2 | COc1c(F)ccc2c1nc(N)n1cc(Cc3ccccc3)nc21 [Ex-11, 2-benzyl-8-fluoro-7-methoxyimidazo[1,2-c]quinazolin-5-amine]
3.6 | Nc1nc2c(F)cccc2c2nc(C(=O)NCc3cccc(N4CCOCC4)c3)cn12 [Ex-257, 5-amino-7-fluoro-N-(3-morpholino-benzyl)imidazo-[1,2-c]-quinazoline-2-carboxamide]
47 | Nc1nc2c(F)cccc2c2nc(CC3CCN(C(=O)c4ncccn4)CC3)cn12 [Ex-326, (4-((5-amino-7-fluoroimidazo[1,2-c]quinazolin-2-yl)-methyl)piperidin-1-yl)(pyrimidin-2-yl)-methanone]
4.2 | COc1cccc2c1nc(N)n1cc(CN3CCc4cccnc4C3)nc21 [Ex-120, 2-((5,8-dihydro-1,7-naphthyridin-7(6H)-yl)methyl)-7-methoxyimidazo[1,2-c]quinazolin-5-amine]
97 | CC(=O)Nc1ccc2c(c1)CCN(Cc1cn3c(N)nc4c(F)cccc4c3n1)C2 [Ex-128, N-(2-((5-amino-7-fluoroimidazo[1,2-c]quinazolin-2-yl)methyl)-1,2,3,4-tetrahydroisoquinolin-6-yl)acetamide]
7.1 | Nc1nc2c(F)cccc2c2nc(-c3ccccc3)cn12 [Ex-106, 7-fluoro-2-phenylimidazo[1,2-c]quinazolin-5-amine]
39.4 | Nc1nc2ccccc2c2nc(C(=O)NCc3cccc4cccnc34)cn12 [Ex-161, 5-amino-N-(quinolin-8-ylmethyl)-imidazo-[1,2-c]-quinazoline-2-carboxamide]
6.2 | Nc1nc2c(OC(F)(F)F)cccc2c2nc(Cc3ccccc3)cn12 [Ex-10, 2-benzyl-7-(trifluoromethoxy)imidazo[1,2-c]quinazolin-5-amine]
3.7 | COc1cccc2c1nc(N)n1cc(Cc3cccnc3N3CCCCC3)nc21 [Ex-50, 7-methoxy-2-((2-(piperidin-1-yl)pyridin-3-yl)methyl)imidazo[1,2-c]quinazolin-5-amine]

Second part, the compound before the results:

SMILES | Ki [nM]
COc1cccc2c1nc(N)n1cc(C(=O)N3CCC[C@H]3CF)nc21 [Ex-219, (S)-(5-amino-7-methoxyimidazo[1,2-c]quinazolin-2-yl)(2-(fluoromethyl)pyrrolidin-1-yl)methanone] | 3.6
COc1cccc2c1nc(N)n1cc(C(=O)N3CCOC[C@@H]3C)nc21 [Ex-184, (S)-(5-amino-7-methoxyimidazo[1,2-c]quinazolin-2-yl)(3-methylmorpholino) methanone] | 90
COc1cccc2c1nc(N)n1cc(C(=O)N3CCC(C(C)C)CC3)nc21 [Ex-196, (5-amino-7-methoxyimidazo[1,2-c]quinazolin-2-yl)(4-isopropylpiperidin-1-yl)methanone] | 11
COc1cccc2c1nc(N)n1cc(C(=O)N3CCC4(CCC(=O)O4)CC3)nc21 [Ex-227, 8-(5-amino-7-methoxyimidazo[1,2-c]quinazoline-2-carbonyl)-1-oxa-8-azaspiro[4.5]decan-2-one] | 240
COc1cccc2c1nc(N)n1cc(C(=O)N3CCO[C@H](C)C3)nc21 [Ex-181, (R)-(5-amino-7-methoxyimidazo[1,2-c]quinazolin-2-yl)(2-methylmorpholino) methanone] | 110
COc1cccc2c1nc(N)n1cc(C(=O)N3CCOC(C(F)(F)F)C3)nc21 (centres unmarked) [Ex-185, (5-amino-7-methoxyimidazo[1,2-c]quinazolin-2-yl)(2-(trifluoromethyl)morpholino) methanone] | 65
COc1cccc2c1nc(N)n1cc(CN3CCc4ccc(-c5ccc(F)c(F)c5)cc4C3)nc21 [Ex-135, 2-((7-(3,4-difluorophenyl)-3,4-dihydroisoquinolin-2(1H)-yl)methyl)-7-methoxyimidazo[1,2-c]quinazolin-5-amine] | 10.4
COc1cccc2c1nc(N)n1cc(C(=O)N3CC[C@H](F)C3)nc21 [Ex-215, (S)-(5-amino-7-methoxyimidazo[1,2-c]quinazolin-2-yl)(3-fluoropyrrolidin-1-yl)methanone] | 7.4
COc1cccc2c1nc(N)n1cc(CN3CCc4ccc(-c5cncnc5)cc4C3)nc21 [Ex-134] | 7.9
COc1cccc2c1nc(N)n1cc(C(=O)N3CCCC(CO)C3)nc21 (centres unmarked) [Ex-191, (5-amino-7-methoxyimidazo[1,2-c]quinazolin-2-yl)(3-(hydroxymethyl)piperidin-1-yl)methanone] | 23
COc1cccc2c1nc(N)n1cc(Cc3cccc4c3CCN(C(=O)Cc3ccc(F)c(F)c3)C4)nc21 [Ex-59, 1-(5-((5-amino-7-methoxyimidazo[1,2-c]quinazolin-2-yl)methyl)-3,4-dihydroisoquinolin-2(1H)-yl)-2-(3,4-difluorophenyl)ethan-1-one] | 2.9
COc1cccc2c1nc(N)n1cc(Cc3ccnc(N4CCN(C(C)=O)CC4)c3)nc21 [Ex-46, 1-(4-(4-((5-amino-7-methoxyimidazo[1,2-c]quinazolin-2-yl)methyl)pyridin-2-yl)piperazin-1-yl)ethan-1-one] | 7.4
CC(C)(C)OC(=O)N1CCC2(CCN(C(=O)c3cn4c(N)nc5c(F)cccc5c4n3)C2)C1 (centres unmarked) [Ex-259, tert-butyl 7-(5-amino-7-fluoroimidazo[1,2-c]quinazoline-2-carbonyl)-2,7-diazaspiro[4.4]nonane-2-carboxylate] | 29
COc1cccc2c1nc(N)n1cc(CN3CCN4CCCC[C@@H]4C3)nc21 [Ex-132, (R)-7-methoxy-2-((octahydro-2H-pyrido[1,2-a]pyrazin-2-yl)methyl)imidazo[1,2-c]quinazolin-5-amine] | 150
COc1cccc2c1nc(N)n1cc(C(=O)N3CCCC(C(F)(F)F)C3)nc21 (centres unmarked) [Ex-173, (5-amino-7-methoxyimidazo[1,2-c]quinazolin-2-yl)(3-(trifluoromethyl)piperidin-1-yl)methanone] | 31
COc1cccc2c1nc(N)n1cc(CN3Cc4ccc(F)cc4C3)nc21 [Ex-123, 2-((5-fluoroisoindolin-2-yl)methyl)-7-methoxyimidazo[1,2-c]quinazolin-5-amine] | 9.2
COc1cccc2c1nc(N)n1cc(C(=O)N3CCCCC34CC4)nc21 [Ex-198, (5-amino-7-methoxyimidazo[1,2-c]quinazolin-2-yl)(4-azaspiro[2.5]octan-4-yl)methanone] | 5.6
COc1ccc(C(=O)N2CCC(Cc3cn4c(N)nc5c(F)cccc5c4n3)CC2)nc1 [Ex-327, (4-((5-amino-7-fluoroimidazo[1,2-c]quinazolin-2-yl)-methyl)piperidin-1-yl)(5-methoxypyridin-2-yl)methanone] | 21

same assay, conditions: value printed in the synthesis text as 'A2a=' without quantity name; read-out: A2a

Ki [nM] | SMILES
8.4 | Nc1nc2c(F)cccc2c2nc(Cc3ccc4c(c3)CN(C(=O)c3ccccc3)C4)cn12 [L-005052550, (5-((5-amino-7-fluoroimidazo[1,2-c]quinazolin-2-yl)methyl)isoindolin-2-yl)(phenyl)methanone]
